What was measured:
Assay in all cases: relative viability (nuclei count vs DMSO), 5 days (fraction); higher = more cells survive
[1] = compound: CC1=C(C(=NN1)C)CC2=C(C3=C(S2)N(C(=O)N(C3=O)C)CC(C)C)C(=O)N4C[C@@H](CO4)O + COc1cc2c(Oc3ccc(NC(=O)C4(C(=O)Nc5ccc(F)cc5)CC4)cc3F)ccnc2cc1OCCCN1CCOCC1 [Foretinib] (partner 0.25 µM)
Method in brief: (§1)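 Lung cancer cell lines, seeded in 1536-well plates, were treated the following day by pin tool with a single drug or with five library-drug doses (not always all listed) in √10 steps on top of a fixed anchor-drug dose. Cells were fixed and nuclei stained in one step after 5 days, and nuclei were counted. Relative viability is the nuclei count for treated wells divided by that for vehicle wells, reported as medians of duplicate plates.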

IDH-C35 + Lapatinib = compound: Cc1ccccc1C(C(=O)NC1CCCCC1)N(C(=O)Cn1ccnc1C)c1cccc(F)c1 [IDH-C35] + CS(=O)(=O)CCNCc1ccc(-c2ccc3ncnc(Nc4ccc(OCc5cccc(F)c5)c(Cl)c4)c3c2)o1 [Lapatinib] (partner 2 µM)
Method in brief: as §1

IDH-C35 + Pemetrexed = compound: Cc1ccccc1C(C(=O)NC1CCCCC1)N(C(=O)Cn1ccnc1C)c1cccc(F)c1 [IDH-C35] + Nc1nc2[nH]cc(CCc3ccc(C(=O)N[C@@H](CCC(=O)O)C(=O)O)cc3)c2c(=O)[nH]1 [Pemetrexed] (partner 0.2 µM)
Method in brief: as §1

IDH-C35 + OSI-027 = compound: Cc1ccccc1C(C(=O)NC1CCCCC1)N(C(=O)Cn1ccnc1C)c1cccc(F)c1 [IDH-C35] + COc1cccc2cc(-c3nc([C@H]4CC[C@H](C(=O)O)CC4)n4ncnc(N)c34)[nH]c12 [OSI-027] (partner 0.5 µM)
Method in brief: as §1

Row | Cell Line | relative viability ([1]; first compound 0.0025 µM) | relative viability ([1]; first compound 0.007906 µM) | relative viability ([1]; first compound 0.025 µM) | relative viability ([1]; first compound 0.07906 µM) | relative viability ([1]; first compound 0.25 µM) | relative viability (IDH-C35 + Lapatinib; first compound 0.08 µM) | relative viability (IDH-C35 + Lapatinib; first compound 0.253 µM) | relative viability (IDH-C35 + Lapatinib; first compound 0.8 µM) | relative viability (IDH-C35 + Lapatinib; first compound 2.53 µM) | relative viability (IDH-C35 + Lapatinib; first compound 8 µM) | relative viability (IDH-C35 + Pemetrexed; first compound 0.08 µM) | relative viability (IDH-C35 + Pemetrexed; first compound 0.253 µM) | relative viability (IDH-C35 + Pemetrexed; first compound 0.8 µM) | relative viability (IDH-C35 + Pemetrexed; first compound 2.53 µM) | relative viability (IDH-C35 + Pemetrexed; first compound 8 µM) | relative viability (IDH-C35 + OSI-027; first compound 0.08 µM) | relative viability (IDH-C35 + OSI-027; first compound 0.253 µM) | relative viability (IDH-C35 + OSI-027; first compound 0.8 µM) | relative viability (IDH-C35 + OSI-027; first compound 2.53 µM) | relative viability (IDH-C35 + OSI-027; first compound 8 µM)
1 | LXF-289 | 0.963 | 0.926 | 1.02 | 0.994 | 1.03 | 0.9 | 0.893 | 0.91 | 0.965 | 0.877 | 1.02 | 0.857 | 0.859 | 0.894 | 0.797 | 0.79 | 0.761 | 0.757 | 0.783 | 0.709
2 | NCI-H23 | 1.05 | 0.992 | 0.965 | 1.07 | 1.16 | 0.988 | 1.15 | 1.23 | 1.06 | 0.97 | 0.642 | 0.848 | 0.625 | 0.773 | 0.652 | 0.582 | 0.635 | 0.558 | 0.392 | 0.453
3 | NCI-H322M | 1.07 | 0.969 | 1.04 | 0.977 | 0.98 | 0.541 | 0.59 | 0.625 | 0.529 | 0.608 | 0.622 | 0.554 | 0.644 | 0.578 | 0.608 | 0.585 | 0.566 | 0.628 | 0.549 | 0.511
4 | NCI-H358 | 0.636 | 0.76 | 0.664 | 0.766 | 0.791 | 0.502 | 0.503 | 0.445 | 0.534 | 0.508 | 0.168 | 0.179 | 0.175 | 0.184 | 0.172 | 0.776 | 0.757 | 0.698 | 0.775 | 0.756
5 | NCI-H460 | 1.01 | 1.09 | 0.949 | 1.01 | 1.11 | 1.19 | 1.11 | 0.978 | 0.888 | 0.963 | 0.0621 | 0.0643 | 0.0648 | 0.0655 | 0.0759 | 0.659 | 0.757 | 0.681 | 0.644 | 0.602
6 | NCI-H520 | 0.894 | 0.73 | 0.701 | 0.564 | 0.692 | 0.895 | 0.979 | 0.765 | 0.884 | 0.914 | 0.776 | 0.548 | 0.715 | 0.699 | 0.622 | 0.257 | 0.243 | 0.268 | 0.276 | 0.265
7 | NCI-H596 | 1.08 | 1.12 | 0.691 | 0.702 | 0.99 | 1.01 | 1.04 | 1.11 | 1.16 | 1.06 | 0.473 | 0.475 | 0.529 | 0.549 | 0.455 | 0.787 | 0.806 | 0.709 | – | 0.629
8 | NCI-H647 | 1.23 | 1.27 | 1.13 | 1.19 | 1.2 | 1.01 | 1.08 | 0.999 | 1.09 | 0.86 | 0.186 | 0.161 | 0.175 | 0.171 | 0.167 | 0.683 | 0.676 | 0.573 | 0.569 | 0.665
9 | NCI-H650 | 1.07 | 0.937 | 0.938 | 0.977 | 1.08 | 0.588 | 0.824 | 0.85 | – | 0.884 | 0.911 | 0.96 | 0.893 | – | 0.893 | 0.558 | 0.571 | 0.466 | – | 0.509
10 | NCI-H661 | 1 | 0.97 | 0.95 | 0.978 | 0.998 | 0.634 | 0.447 | 0.362 | 0.519 | 0.351 | 0.95 | 0.948 | 0.893 | 0.901 | 0.879 | 0.756 | 0.68 | 0.725 | 0.695 | 0.746
11 | NCI-H838 | 1.06 | 1.04 | 0.983 | 0.974 | 0.99 | 1.21 | 1.07 | 0.882 | 1.02 | 1.02 | 0.241 | 0.248 | 0.272 | 0.255 | 0.235 | 0.406 | 0.402 | 0.369 | 0.383 | 0.398
12 | NCI-H1355 | 1.04 | 1.11 | 1 | 1.02 | 1.12 | 1.03 | 0.976 | 0.945 | 0.97 | 0.934 | 1.11 | 1.02 | 0.987 | 1 | 1 | 0.422 | 0.445 | 0.382 | 0.466 | 0.395
13 | NCI-H1395 | 1.11 | 1.04 | 0.804 | 0.812 | 0.824 | 1 | 0.928 | 1.08 | 1.09 | 0.891 | 0.869 | 0.882 | 0.866 | 0.989 | 0.925 | 0.66 | 0.701 | 0.709 | 0.618 | 0.579
14 | NCI-H1437 | 1.26 | 1.29 | 1.18 | 1.3 | 1.24 | 0.942 | 0.807 | 0.776 | 0.904 | 0.812 | 0.35 | 0.291 | 0.362 | 0.299 | 0.296 | 0.876 | 0.907 | 0.842 | 0.828 | 0.756
15 | NCI-H1563 | 0.933 | 0.969 | 0.967 | 0.933 | 0.936 | 1.11 | 0.955 | 0.96 | 0.912 | 1.09 | 0.827 | 0.803 | 0.652 | 0.854 | 0.613 | 0.769 | 0.721 | 0.788 | 0.768 | 0.727
16 | NCI-H1650 | 1.18 | 1.26 | 1.52 | 1.18 | 1.05 | 0.785 | 0.835 | 0.692 | 0.285 | 0.664 | 0.334 | 0.4 | 0.323 | 0.428 | 0.362 | 0.667 | 0.593 | 0.637 | 0.659 | 0.571
